# Numbers after ± are expanded uncertainties.
# How the values were obtained:
# [1] = 101.33 kPa, Liquid; for speed of sound: Anton-Paar DSA48 sound analyzer; for mass density: Vibrating tube method
# [2] = molar heat capacity at constant pressure; conditions: 101.33 kPa, Liquid, Small sample (50 mg) DSC
# [3] = excess molar enthalpy (molar enthalpy of mixing); xn = mol fraction of the nth substance listed; conditions: 303.15 K, 101.3 kPa, Liquid, Calvet calorimetry
Compound,speed of sound ([1]; 293.15 K) [m/s],mass density ([1]; 293.15 K) [kg/m3],speed of sound ([1]; 298.15 K) [m/s],mass density ([1]; 298.15 K) [kg/m3],speed of sound ([1]; 303.15 K) [m/s],mass density ([1]; 303.15 K) [kg/m3],speed of sound ([1]; 308.15 K) [m/s],mass density ([1]; 308.15 K) [kg/m3],speed of sound ([1]; 313.15 K) [m/s],mass density ([1]; 313.15 K) [kg/m3],speed of sound ([1]; 318.15 K) [m/s],mass density ([1]; 318.15 K) [kg/m3],molar heat capacity at constant pressure ([2]; 293.15 K) [J/K/mol],molar heat capacity at constant pressure ([2]; 298.15 K) [J/K/mol],molar heat capacity at constant pressure ([2]; 303.15 K) [J/K/mol],molar heat capacity at constant pressure ([2]; 308.15 K) [J/K/mol],molar heat capacity at constant pressure ([2]; 313.15 K) [J/K/mol],molar heat capacity at constant pressure ([2]; 318.15 K) [J/K/mol],other results
CCCCn1cc[n+](C)c1.COS(=O)(=O)[O-] [1-butyl-3-methylimidazolium methyl sulfate],1670.9 ± 2,1210.7 ± 1.3,1658.4 ± 2,1207.4 ± 1.3,1646 ± 2,1204.1 ± 1.3,1633.5 ± 2,1200.8 ± 1.3,1621.1 ± 2,1197.5 ± 1.3,1608.6 ± 2,1194.2 ± 1.3,413.7 ± 6.4,416.2 ± 6.4,418.5 ± 6.5,420.9 ± 6.5,423.3 ± 6.6,425.6 ± 6.6,–
CCCC[n+]1cccc(C)c1.F[B-](F)(F)F [1-butyl-3-methylpyridinium tetrafluoroborate],1599.8 ± 2,–,1587 ± 2,–,1574.8 ± 2,–,1562.6 ± 2,–,1550.7 ± 2,–,1538.9 ± 2,–,–,–,–,–,–,–,–
CCOS(=O)(=O)[O-].CCn1cc[n+](C)c1 [1-ethyl-3-methylimidazolium ethyl sulfate],1691.4 ± 2,1240.6 ± 1.4,1679 ± 2,1237.2 ± 1.4,1666.6 ± 2,1233.8 ± 1.4,1654 ± 2,1230.4 ± 1.3,1641.6 ± 2,1227 ± 1.3,1629.2 ± 2,1223.7 ± 1.3,392.2 ± 6.1,394.4 ± 6.1,396.8 ± 6.1,399.3 ± 6.2,402 ± 6.2,404.9 ± 6.3,–
CCn1cc[n+](C)c1.O=S(=O)([O-])C(F)(F)F [1-ethyl-3-methylimidazolium trifluoromethanesulfonate],1447 ± 2,1389.5 ± 1.7,1435.6 ± 2,1385.3 ± 1.7,1424.3 ± 2,1381.1 ± 1.7,1413.1 ± 2,1376.9 ± 1.7,1402.1 ± 2,1372.7 ± 1.7,1391.1 ± 2,1368.6 ± 1.7,361.1 ± 5.6,363.2 ± 5.6,365.3 ± 5.7,367.4 ± 5.7,369.6 ± 5.7,371.8 ± 5.8,–
C[N+](=O)[O-] [nitromethane],1339.6 ± 1.5,1140.2 ± 0.7,1320.1 ± 1.5,1133.4 ± 0.7,1300.5 ± 1.5,1126.6 ± 0.7,1280.7 ± 1.5,1119.7 ± 0.6,1261.1 ± 1.5,1112.9 ± 0.6,1241.6 ± 1.5,1106 ± 0.6,106.6 ± 1.7,106.9 ± 1.7,107.3 ± 1.7,107.7 ± 1.7,108.2 ± 1.7,108.6 ± 1.7,–
CCCCn1cc[n+](C)c1.O=S(=O)([O-])C(F)(F)F [1-butyl-3-methylimidazolium trifluoromethanesulfonate],1403.4 ± 2,1301.6 ± 1.5,1392.1 ± 2,1297.6 ± 1.5,1380.9 ± 2,1293.7 ± 1.5,1369.8 ± 2,1289.7 ± 1.5,1358.8 ± 2,1285.8 ± 1.5,1348.1 ± 2,1281.9 ± 1.5,421.6 ± 6.5,424.1 ± 6.6,426.7 ± 6.6,429.5 ± 6.7,432.4 ± 6.7,435.5 ± 6.7,–
C[N+](=O)[O-] [nitromethane] + CCCC[n+]1cccc(C)c1.F[B-](F)(F)F,–,–,–,–,–,–,–,–,–,–,–,–,–,–,–,–,–,–,excess molar enthalpy ([3]; x2 = 0.0992): -0.0602 ± 0.00478 kcal/mol; excess molar enthalpy ([3]; x2 = 0.1547): -0.0784 ± 0.00621 kcal/mol; excess molar enthalpy ([3]; x2 = 0.1998): -0.0958 ± 0.00765 kcal/mol; excess molar enthalpy ([3]; x2 = 0.3029): -0.106 ± 0.0086 kcal/mol; excess molar enthalpy ([3]; x2 = 0.3978): -0.114 ± 0.00908 kcal/mol; excess molar enthalpy ([3]; x2 = 0.4973): -0.112 ± 0.00908 kcal/mol; excess molar enthalpy ([3]; x2 = 0.6053): -0.0946 ± 0.00765 kcal/mol; excess molar enthalpy ([3]; x2 = 0.7038): -0.0803 ± 0.00645 kcal/mol; excess molar enthalpy ([3]; x2 = 0.795): -0.0557 ± 0.00454 kcal/mol; excess molar enthalpy ([3]; x2 = 0.8525): -0.0387 ± 0.00311 kcal/mol
CCCCn1cc[n+](C)c1.F[B-](F)(F)F [1-butyl-3-methylimidazolium tetrafluoroborate],1594.9 ± 2,1207.6 ± 1.3,1576.1 ± 2,1204.1 ± 1.3,1555.5 ± 2,1200.5 ± 1.3,1543.9 ± 2,1197 ± 1.3,1532.5 ± 2,1193.4 ± 1.3,1521.2 ± 2,1189.9 ± 1.3,359.8 ± 5.6,363.1 ± 5.6,366.1 ± 5.7,368.7 ± 5.7,371 ± 5.7,372.9 ± 5.8,–
CCCCCCn1cc[n+](C)c1.F[B-](F)(F)F [1-hexyl-3-methylimidazolium tetrafluoroborate],1532.7 ± 2,1148.8 ± 1.2,1519.5 ± 2,1145.3 ± 1.1,1506.9 ± 2,1141.8 ± 1.1,1494.5 ± 2,1138.4 ± 1.1,1482.3 ± 2,1135 ± 1.1,1470.5 ± 2,1131.6 ± 1.1,425.1 ± 6.6,427.8 ± 6.6,430.4 ± 6.7,433 ± 6.7,435.5 ± 6.7,438.1 ± 6.8,–
